Measurements as given in patent publication US9259443B2, “Compositions and methods for the generation of platelets and methods of use thereof” (The Children's Hospital of Philadelphia, priority 2010, dated 2016).

Key:
NSG mice = test: Infusion of human platelets or human ex vivo-grown megakaryocytes into NSG mice; assay type: in vivo, mouse; details: for time of spike of platelets after infusion: NSG mice; for platelets per megakaryocyte: two million large cells
Method: FIG. 7A provides a graph of human platelets infused into immune-suppressed NOD/SCID/[…] NSG mice over time. FIG. 7B provides a graph of the percentage of human platelets over time after infusion of fetal liver megakaryocytes into NSG mice. FIG. 7C provides a graph of human platelets over time after infusion of dimethylfasudil (diMF; 5 μM), a Rho/ROCK1 kinase inhibitor, treated human fetal liver megakaryocytes (large cells) into NSG mice. FIG. 7D provides a graph of human platelets over time after infusion of human megakaryocytes (large cell) from CD34+ bone marrow cells into NSG mice. FIG. 7E provides a graph of human platelets over time after infusion of dimethylfasudil (2 μM)-treated human CD34+ bone marrow megakaryocytes (large cell) into NSG mice.
NSG mice (Shultz et al. (2007) Nat. Rev. Immunol., 7:118-130; Shultz et al. (2005) J. Immunol., 174:6477-89) were infused with human platelets. […] When human fetal liver (FL) megakaryocytes were infused into NSG mice, a spike of platelets was observed within 10 hours of infusion (FIG. 7B). Two million large cells infused yielded about 13 platelets per megakaryocyte.
To increase platelet production, dimethylfasudil (diMF), a Rho/ROCK1 kinase inhibitor, was tested for its ability to promote human FL megakaryocyte maturation. […] Further, the infusion of two million large cells yielded only about 6 platelets per megakaryocyte. Next, human-Megs (large) from bone marrow (BM) CD34+ cells were infused into NSG mice. […] Further, the infusion of two million large cells yielded about 70 platelets per megakaryocyte. When BM CD34+ Megs (large) were treated with DiMF (2 μm) and infused into NSG mice, a spike of platelets was observed immediately (FIG. 7E). Further, the infusion of two million large cells yielded only about 4 platelets per megakaryocyte.

hαIIb+ recipient mice = test: FL cells grown with metalloproteinase (ADAM17) inhibitors, infused into hαIIb+ mice, derived platelet half-life; assay type: in vivo, mouse
[1] = BM CD34+ Megs (large) treated with DiMF 2 μm
[2] = human FL-megakaryocytes (large) treated with DiMF 5 μm

SMILES: Cc1cncc2cccc(S(=O)(=O)N3CCCNC[C@@H]3C)c12 [DiMF, dimethylfasudil]
- time of spike of platelets after infusion (NSG mice; [1]): immediately
- platelets per megakaryocyte (NSG mice; [1]): about 4
- time of spike of platelets after infusion (NSG mice; [2]): within about one hour
- platelets per megakaryocyte (NSG mice; [2]): about 6

SMILES: CNC(=O)[C@H](Cc1c[nH]c2ccccc12)NC(=O)[C@@H](CC(=O)NO)CC(C)C [GM6001]
- change in derived platelet half-life (hαIIb+ recipient mice; FL cells grown with GM6001 100 μM): no change

SMILES: CC(C)C[C@H](CC(=O)NO)C(=O)N[C@@H](Cc1ccc2ccccc2c1)C(=O)N[C@@H](C)C(=O)NCCN [TAP-1]
- change in derived platelet half-life (hαIIb+ recipient mice; FL cells grown with TAP-1 10 μM): no change
